Measurements published in ChEMBL document CHEMBL2040748, “N-4-t-Butylbenzyl 2-(4-methylsulfonylaminophenyl) propanamide TRPV1 antagonists: Structure-activity relationships in the A-region” (Bioorg Med Chem, 2012).
pKi: −log10 of the molar value.

What was measured:
[1] = molecular target: T1, Transient receptor potential cation channel subfamily V member 1 (Rattus norvegicus, UniProt O35433); test: Displacement of [3H]RTX from rat TRPV1 receptor expressed in CHO cells after 60 mins by scintillation counting; type: cell-based; conditions: for Ki: cho; for pKi: read-out: Ki
T1 sequence (O35433 whole entry): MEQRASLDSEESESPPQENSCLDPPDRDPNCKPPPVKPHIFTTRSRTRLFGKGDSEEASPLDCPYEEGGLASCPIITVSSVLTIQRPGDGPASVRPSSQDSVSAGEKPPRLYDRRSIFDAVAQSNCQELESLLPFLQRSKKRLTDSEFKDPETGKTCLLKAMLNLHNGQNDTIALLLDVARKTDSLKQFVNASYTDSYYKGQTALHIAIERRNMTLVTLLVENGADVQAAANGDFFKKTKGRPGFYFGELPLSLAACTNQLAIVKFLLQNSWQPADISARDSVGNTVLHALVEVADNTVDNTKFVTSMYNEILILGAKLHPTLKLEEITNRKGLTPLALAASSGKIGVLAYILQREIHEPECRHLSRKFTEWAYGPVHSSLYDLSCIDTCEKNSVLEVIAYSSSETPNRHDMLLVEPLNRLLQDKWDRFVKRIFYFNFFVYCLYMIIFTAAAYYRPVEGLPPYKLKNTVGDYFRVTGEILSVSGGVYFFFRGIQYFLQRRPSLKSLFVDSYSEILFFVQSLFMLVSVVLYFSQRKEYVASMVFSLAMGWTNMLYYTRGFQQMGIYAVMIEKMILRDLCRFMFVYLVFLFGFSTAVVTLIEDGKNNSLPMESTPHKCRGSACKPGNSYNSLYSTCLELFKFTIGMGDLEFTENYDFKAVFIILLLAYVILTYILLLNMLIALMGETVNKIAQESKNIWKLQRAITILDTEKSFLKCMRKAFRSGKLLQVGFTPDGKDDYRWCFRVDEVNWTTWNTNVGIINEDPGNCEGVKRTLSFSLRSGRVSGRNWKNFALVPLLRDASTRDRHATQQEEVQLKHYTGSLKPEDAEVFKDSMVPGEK

[2] = molecular target: Transient receptor potential cation channel subfamily V member 1 (Rattus norvegicus) (UniProt O35433); test: Antagonist activity at rat TRPV1 receptor expressed in CHO cells assessed as decrease in capsaicin-induced intracellular 45Ca2+ uptake after 1 hr by […] analysis relative to untreated control; type: functional, cell-based
Transient receptor potential cation channel subfamily V member 1 (Rattus norvegicus), sequence (O35433 whole entry): as above

[3] = molecular target: T2, Transient receptor potential cation channel subfamily V member 1 (Homo sapiens, UniProt Q8NER1); test: Displacement of [3H]RTX from human TRPV1 receptor expressed in CHO cells after 60 mins by scintillation counting; type: cell-based
T2 sequence (Q8NER1 whole entry): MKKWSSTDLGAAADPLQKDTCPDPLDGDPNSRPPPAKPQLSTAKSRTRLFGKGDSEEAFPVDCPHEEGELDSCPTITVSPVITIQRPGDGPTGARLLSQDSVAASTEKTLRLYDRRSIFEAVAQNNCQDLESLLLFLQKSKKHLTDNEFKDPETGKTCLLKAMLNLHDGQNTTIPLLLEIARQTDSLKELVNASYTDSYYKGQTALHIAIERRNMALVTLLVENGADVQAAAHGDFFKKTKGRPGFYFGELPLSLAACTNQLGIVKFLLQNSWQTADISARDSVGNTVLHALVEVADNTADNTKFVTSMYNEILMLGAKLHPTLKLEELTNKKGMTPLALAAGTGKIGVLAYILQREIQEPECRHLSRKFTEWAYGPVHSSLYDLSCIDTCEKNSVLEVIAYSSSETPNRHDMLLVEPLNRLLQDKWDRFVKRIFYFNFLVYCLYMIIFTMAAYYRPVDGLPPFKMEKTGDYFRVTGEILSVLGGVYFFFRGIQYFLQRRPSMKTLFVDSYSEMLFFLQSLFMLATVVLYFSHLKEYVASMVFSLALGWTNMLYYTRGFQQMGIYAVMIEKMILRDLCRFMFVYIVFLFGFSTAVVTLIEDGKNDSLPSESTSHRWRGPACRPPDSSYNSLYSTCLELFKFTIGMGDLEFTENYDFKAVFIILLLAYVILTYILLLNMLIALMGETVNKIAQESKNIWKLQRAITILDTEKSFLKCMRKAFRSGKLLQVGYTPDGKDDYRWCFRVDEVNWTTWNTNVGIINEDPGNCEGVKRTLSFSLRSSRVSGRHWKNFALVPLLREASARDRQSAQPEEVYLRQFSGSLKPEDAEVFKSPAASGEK

[4] = molecular target: T1, Transient receptor potential cation channel subfamily V member 1; test: Antagonist activity at rat TRPV1 receptor expressed in CHO cells assessed as decrease in capsaicin-induced intracellular 45Ca2+ uptake after 1 hr by […] analysis; type: functional, cell-based
[5] = molecular target: T2, Transient receptor potential cation channel subfamily V member 1; test: Antagonist activity at human TRPV1 receptor expressed in CHO cells assessed as decrease in capsaicin-induced intracellular 45Ca2+ uptake after 1 hr by […] analysis; type: functional, cell-based
[6] = molecular target: T2, Transient receptor potential cation channel subfamily V member 1; test: Antagonist activity at human TRPV1 receptor expressed in CHO cells assessed as decrease in pH-induced intracellular 45Ca2+ uptake after 1 hr by […] analysis; type: functional, cell-based

| Efficacy [2] [%] | pKi [1] | pKi [3] | pKi [4] | pKi [5] | pKi [6] | SMILES | also measured |
| --- | --- | --- | --- | --- | --- | --- | --- |
| – | – | – | – | – | – | CC(C(=O)NCc1ccc(C(C)(C)C)cc1)c1ccc(NS(C)(=O)=O)c(N2CCOCC2)c1 (centres undefined) | Ki [1]: Active |
| 23 | – | – | – | – | – | CC(C(=O)NCc1ccc(C(C)(C)C)cc1)c1ccc(NS(C)(=O)=O)c(C(=O)NCc2ccccc2)c1 (centres undefined) | – |
| 13 | 5.15 | – | – | – | – | CC(C(=O)NCc1ccc(C(C)(C)C)cc1)c1ccc(NS(C)(=O)=O)c(N2CCN(C(=O)OC(C)(C)C)CC2)c1 (centres undefined) | – |
| 16 | – | – | – | – | – | CC(C(=O)NCc1ccc(C(C)(C)C)cc1)c1ccc(NS(C)(=O)=O)c(C(=O)OC(C)(C)C)c1 (centres undefined) | – |
| – | 6.12 | 5.59 | 6.73 | 6.66 | 6.36 | C[C@@H](C(=O)NCc1ccc(C(C)(C)C)cc1)c1ccc(NS(C)(=O)=O)c(F)c1 | – |
| 84 | – | – | – | – | – | COc1cc(CNC(=S)NCc2ccc(C(C)(C)C)cc2)ccc1NS(C)(=O)=O | – |
| – | – | – | – | – | – | CC(C(=O)NCc1ccc(C(C)(C)C)cc1)c1ccc(NS(C)(=O)=O)c(N2CCCCC2)c1 (centres undefined) | Ki [1]: Active |
| – | 7.34 | 7.05 | 8.12 | 8.29 | 7.90 | CC(C(=O)NCc1ccc(C(C)(C)C)cc1)c1ccc(NS(C)(=O)=O)c(F)c1 (racemic) | – |
| – | 7.61 | 7.80 | 8.38 | 9.31 | 8.08 | C[C@H](C(=O)NCc1ccc(C(C)(C)C)cc1)c1ccc(NS(C)(=O)=O)c(F)c1 | – |
| – | 7.48 | – | 7.72 | – | – | Cc1cc(C(C)C(=O)NCc2ccc(C(C)(C)C)cc2)ccc1NS(C)(=O)=O (centres undefined) | – |
